According to patent publication US8178570B2, “Tie-2 modulators and methods of use” (Exelixis, Inc., priority 2003, dated 2012):

Each molecule was assayed against Tie-2 (Homo sapiens, UniProt Q02763) (assay: Tie-2 tyrosine kinase activity: kinase-dependent ATP consumption (pEY substrate, luciferase/luciferin chemiluminescence) or 33P-ATP incorporation into substrate). Conditions: Tie-2 (human enzyme) inhibition, Table 2, class symbols A-D.
Tie-2, sequence (Q02763 23-1124): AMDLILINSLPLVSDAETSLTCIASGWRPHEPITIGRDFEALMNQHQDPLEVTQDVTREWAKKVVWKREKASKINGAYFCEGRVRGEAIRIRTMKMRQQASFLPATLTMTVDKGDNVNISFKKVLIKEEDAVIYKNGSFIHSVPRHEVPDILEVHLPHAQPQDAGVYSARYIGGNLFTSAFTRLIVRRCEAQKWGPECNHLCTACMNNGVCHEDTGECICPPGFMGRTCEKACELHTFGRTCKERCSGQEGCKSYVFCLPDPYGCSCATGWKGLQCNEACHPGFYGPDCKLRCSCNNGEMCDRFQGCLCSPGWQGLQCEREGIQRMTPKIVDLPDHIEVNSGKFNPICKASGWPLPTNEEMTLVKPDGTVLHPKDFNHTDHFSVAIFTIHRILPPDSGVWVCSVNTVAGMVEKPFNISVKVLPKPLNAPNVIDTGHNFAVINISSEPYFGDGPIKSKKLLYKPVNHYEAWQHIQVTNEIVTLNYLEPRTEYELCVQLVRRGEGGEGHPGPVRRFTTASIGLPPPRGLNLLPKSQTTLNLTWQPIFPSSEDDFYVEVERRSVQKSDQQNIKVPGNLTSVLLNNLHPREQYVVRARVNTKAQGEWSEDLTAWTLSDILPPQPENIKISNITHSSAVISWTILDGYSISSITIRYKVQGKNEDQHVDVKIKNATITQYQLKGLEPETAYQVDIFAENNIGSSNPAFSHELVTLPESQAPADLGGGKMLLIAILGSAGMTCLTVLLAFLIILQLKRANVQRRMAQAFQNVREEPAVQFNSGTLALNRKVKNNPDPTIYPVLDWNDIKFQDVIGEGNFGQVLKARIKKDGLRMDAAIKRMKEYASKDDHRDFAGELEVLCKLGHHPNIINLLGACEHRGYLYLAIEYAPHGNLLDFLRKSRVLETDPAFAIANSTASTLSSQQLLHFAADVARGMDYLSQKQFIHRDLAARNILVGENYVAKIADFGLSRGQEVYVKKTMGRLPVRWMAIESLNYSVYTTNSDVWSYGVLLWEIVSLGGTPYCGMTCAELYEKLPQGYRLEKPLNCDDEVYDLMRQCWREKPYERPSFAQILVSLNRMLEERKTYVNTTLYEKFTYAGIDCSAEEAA
Format: biochemical
Method in brief: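 Tie-2 kinase activity is read either as ATP consumption with pEY substrate by luciferase/luciferin chemiluminescence, or as 33P incorporation from 33P-ATP into plate-adsorbed substrate by scintillation counting. IC50 values are binned as A <50 nM, B >50–1000 nM, C >1000–<10,000 nM, and D ≥10,000 nM.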
With `COc1ccc(-c2nc(-c3ccncc3)nn2CCN(C(=O)Nc2c(Cl)cc(Cl)cc2Cl)C2CCCC2)cc1Cl` [Entry 137, N-(2-{5-[3-chloro-4-(methyloxy)phenyl]-3-pyridin-4-yl-1H-1,2,4-triazol-1-yl}ethyl)-N-cyclopentyl-N′-(2,4,6-trichlorophenyl)urea] the IC50 was ≥ 10 µM. Work on `COc1ccc(NC(=O)N(CCn2nc(-c3ccncc3)nc2-c2ccc(OC)c(Cl)c2)C2CCCC2)c(C)c1` [Entry 138, N-(2-{5-[3-chloro-4-(methyloxy)phenyl]-3-pyridin-4-yl-1H-1,2,4-triazol-1-yl}ethyl)-N-cyclopentyl-N′-[2-methyl-4-(methyloxy)phenyl]urea] yielded an IC50 of 1 to 10 µM. Work on `COc1ccc(-c2nc(-c3ccncc3)nn2CCN(C(=O)Nc2cc(C)ccc2C)C2CCCC2)cc1Cl` [Entry 139, N-(2-{5-[3-chloro-4-(methyloxy)phenyl]-3-pyridin-4-yl-1H-1,2,4-triazol-1-yl}ethyl)-N-cyclopentyl-N′-(2,5-dimethylphenyl)urea] yielded an IC50 of 1 to 10 µM. With `COc1ccc(-c2nc(-c3ccncc3)nn2CCN(C(=O)Nc2cc(Cl)c(OC)cc2OC)C2CCCC2)cc1Cl` [Entry 140, N′-[5-chloro-2,4-bis(methyloxy)phenyl]-N-(2-{5-[3-chloro-4-(methyloxy)phenyl]-3-pyridin-4-yl-1H-1,2,4-triazol-1-yl}ethyl)-N-cyclopentylurea] the IC50 was ≥ 10 µM. In the case of `COc1ccc(-c2nc(-c3ccncc3)nn2CCN(C(=O)Nc2cc(Cl)cc(Cl)c2)C2CCCC2)cc1Cl` [Entry 141, N-(2-{5-[3-chloro-4-(methyloxy)phenyl]-3-pyridin-4-yl-1H-1,2,4-triazol-1-yl}ethyl)-N-cyclopentyl-N′-(3,5-dichlorophenyl)urea], the IC50 is reported as ≥ 10 µM. With `COc1ccc(-c2nc(-c3ccncc3)nn2CCN(C(=O)Nc2cc(Cl)ccc2OC)C2CCCC2)cc1Cl` [Entry 142, N′-[5-chloro-2-(methyloxy)phenyl]-N-(2-{5-[3-chloro-4-(methyloxy)phenyl]-3-pyridin-4-yl-1H-1,2,4-triazol-1-yl}ethyl)-N-cyclopentylurea] the IC50 was ≥ 10 µM. `COc1ccc(-c2nc(-c3ccncc3)nn2CCN(C(=O)Nc2cccc(SC)c2)C2CCCC2)cc1Cl` [Entry 143, N-(2-{5-[3-chloro-4-(methyloxy)phenyl]-3-pyridin-4-yl-1H-1,2,4-triazol-1-yl}ethyl)-N-cyclopentyl-N′-[3-(methylthio)phenyl]urea] was tested, and the IC50 was ≥ 10 µM. `COc1ccc(-c2nc(-c3ccncc3)nn2CCN(C(=O)Nc2cc(C)cc(C)c2)C2CCCC2)cc1Cl` [Entry 144, N-(2-{5-[3-chloro-4-(methyloxy)phenyl]-3-pyridin-4-yl-1H-1,2,4-triazol-1-yl}ethyl)-N-cyclopentyl-N′-(3,5-dimethylphenyl)urea] was tested, and the IC50 was ≥ 10 µM. `COc1ccc(-c2nc(-c3ccncc3)nn2CCN(C(=O)Nc2cc(C)ccc2OC)C2CCCC2)cc1Cl` [Entry 145, N-(2-{5-[3-chloro-4-(methyloxy)phenyl]-3-pyridin-4-yl-1H-1,2,4-triazol-1-yl}ethyl)-N-cyclopentyl-N′-[5-methyl-2-(methyloxy)phenyl]urea] was tested, and the IC50 was ≥ 10 µM. In the case of `COc1ccc(-c2nc(-c3ccncc3)nn2CCN(C(=O)Nc2ccc(I)cc2)C2CCCC2)cc1Cl` [Entry 146, N-(2-{5-[3-chloro-4-(methyloxy)phenyl]-3-pyridin-4-yl-1H-1,2,4-triazol-1-yl}ethyl)-N-cyclopentyl-N′-(4-iodophenyl)urea], the IC50 is reported as ≥ 10 µM. In the case of `COc1ccc(-c2nc(-c3ccncc3)nn2CCN(C(=O)Nc2ccc(Oc3ccccc3)cc2)C2CCCC2)cc1Cl` [Entry 147, N-(2-{5-[3-chloro-4-(methyloxy)phenyl]-3-pyridin-4-yl-1H-1,2,4-triazol-1-yl}ethyl)-N-cyclopentyl-N′-[4-(phenyloxy)phenyl]urea], the IC50 is reported as ≥ 10 µM. For `COc1ccc(-c2nc(-c3ccncc3)nn2CCN(C(=O)Nc2c(C)cc(C)cc2C)C2CCCC2)cc1Cl` [Entry 148, N-(2-{5-[3-chloro-4-(methyloxy)phenyl]-3-pyridin-4-yl-1H-1,2,4-triazol-1-yl}ethyl)-N-cyclopentyl-N′-(2,4,6-trimethylphenyl)urea], the IC50 was ≥ 10 µM. Work on `COc1ccc(-c2nc(-c3ccncc3)nn2CCN(C(=O)Nc2cc(Cl)ccc2C)C2CCCC2)cc1Cl` [Entry 149, N-(2-{5-[3-chloro-4-(methyloxy)phenyl]-3-pyridin-4-yl-1H-1,2,4-triazol-1-yl}ethyl)-N′-(5-chloro-2-methylphenyl)-N-cyclopentylurea] yielded an IC50 of 1 to 10 µM. For `COc1ccc(-c2nc(-c3ccncc3)nn2CCN(C(=O)Nc2ccc(Cl)cc2C)C2CCCC2)cc1Cl` [Entry 150, N-(2-{5-[3-chloro-4-(methyloxy)phenyl]-3-pyridin-4-yl-1H-1,2,4-triazol-1-yl}ethyl)-N′-(4-chloro-2-methylphenyl)-N-cyclopentylurea], the IC50 was 1 to 10 µM. For `COc1ccc(-c2nc(-c3ccncc3)nn2CCN(C(=O)Nc2c(C)cccc2Cl)C2CCCC2)cc1Cl` [Entry 151, N-(2-{5-[3-chloro-4-(methyloxy)phenyl]-3-pyridin-4-yl-1H-1,2,4-triazol-1-yl}ethyl)-N′-(2-chloro-6-methylphenyl)-N-cyclopentylurea], the IC50 was ≥ 10 µM. Molecule `COc1ccc(-c2nc(-c3ccncc3)nn2CCN(C(=O)Nc2cccc(Cl)c2C)C2CCCC2)cc1Cl` [Entry 152, N-(2-{5-[3-chloro-4-(methyloxy)phenyl]-3-pyridin-4-yl-1H-1,2,4-triazol-1-yl}ethyl)-N′-(3-chloro-2-methylphenyl)-N-cyclopentylurea] has an IC50 of 0.05 to 1 µM. In the case of `COc1ccc(-c2nc(-c3ccncc3)nn2CCN(C(=O)Nc2ccc(F)c(Cl)c2)C2CCCC2)cc1Cl` [Entry 153, N′-(3-chloro-4-fluorophenyl)-N-(2-{5-[3-chloro-4-(methyloxy)phenyl]-3-pyridin-4-yl-1H-1,2,4-triazol-1-yl}ethyl)-N-cyclopentylurea], the IC50 is reported as ≥ 10 µM. For `COc1ccc(-c2nc(-c3ccncc3)nn2CCN(C(=O)Nc2ccccc2SC)C2CCCC2)cc1Cl` [Entry 154, N-(2-{5-[3-chloro-4-(methyloxy)phenyl]-3-pyridin-4-yl-1H-1,2,4-triazol-1-yl}ethyl)-N-cyclopentyl-N′-[2-(methylthio)phenyl]urea], the IC50 was ≥ 10 µM. With `COc1ccc(-c2nc(-c3ccncc3)nn2CCN(C(=O)Nc2cccc(C(F)(F)F)c2)C2CCCC2)cc1Cl` [Entry 155, N-(2-{5-[3-chloro-4-(methyloxy)phenyl]-3-pyridin-4-yl-1H-1,2,4-triazol-1-yl}ethyl)-N-cyclopentyl-N′-[3-(trifluoromethyl)phenyl]urea] the IC50 was ≥ 10 µM. `C=CCNC(=O)N(CCn1nc(-c2ccncc2)nc1-c1ccc(OC)c(Cl)c1)C1CCCC1` [Entry 156, N-(2-{5-[3-chloro-4-(methyloxy)phenyl]-3-pyridin-4-yl-1H-1,2,4-triazol-1-yl}ethyl)-N-cyclopentyl-N′-prop-2-en-1-ylurea] was tested, and the IC50 was ≥ 10 µM. For `COc1ccc(-c2nc(-c3ccncc3)nn2CCN(C(=O)Nc2ccccc2C(C)C)C2CCCC2)cc1Cl` [Entry 157, N-(2-{5-[3-chloro-4-(methyloxy)phenyl]-3-pyridin-4-yl-1H-1,2,4-triazol-1-yl}ethyl)-N-cyclopentyl-N′-[2-(1-methylethyl)phenyl]urea], the IC50 was ≥ 10 µM. `COc1ccc(-c2nc(-c3ccncc3)nn2CCN(C(=O)Nc2cc(F)ccc2C)C2CCCC2)cc1Cl` [Entry 158, N-(2-{5-[3-chloro-4-(methyloxy)phenyl]-3-pyridin-4-yl-1H-1,2,4-triazol-1-yl}ethyl)-N-cyclopentyl-N′-(5-fluoro-2-methylphenyl)urea] was tested, and the IC50 was 1 to 10 µM.
